Reference: ChEMBL document CHEMBL2029335, “Synthesis, X-ray analysis, and biological evaluation of a new class of stereopure lactam-based HIV-1 protease inhibitors” (J Med Chem, 2012)

How the values were obtained:
Protease = Protease (Human immunodeficiency virus 1, UniProt Q9YQ12); test: Inhibition of HIV1 protease expressed in Escherichia coli using DABCYL-Abu-Ser-Gln-ASN-Tyr-Pro-Ile-Val-Gln-EDANS as substrate preincubated for 20 mins measured for 45 mins by fluorometry
[1] = tested on: Human immunodeficiency virus 1; test: Antiviral activity against HIV1 infected in human MT4 cells; type: functional, organism-based; settings: Human immunodeficiency virus 1, MT4
MT4 = test: Cytotoxicity against human MT4 cells after 5 days by XTT assay; type: cell-based; settings: mt4, 120 h
Liver microsomes = test: (§1) Intrinsic clearance in human liver microsomes at 1 uM after 30 mins by LC-MS/MS analysis; type: ADME, Microsome; settings: microsomes, 0.5 h, 1 µM
Caco-2 = test: Apparent permeability from apical to basolateral side in human Caco2 cells after 60 mins; type: ADME, cell-based; settings: caco-2, 1 h
[2] = as §1; type: ADME, Microsome; settings: liver microsomes, read-out: CLH

Protease, sequence (Q9YQ12 whole entry): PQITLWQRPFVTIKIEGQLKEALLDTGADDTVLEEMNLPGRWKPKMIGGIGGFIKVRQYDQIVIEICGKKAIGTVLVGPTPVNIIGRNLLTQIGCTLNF

Compound | Ki (Protease) | EC50 [1] | CC50 (MT4) | CLH (Liver microsomes) | Papp (Caco-2) | microsomal CLint at 1 µM [2]
COC(=O)N[C@H](C(=O)NN(CC[C@@]1(Cc2ccccc2)C(=O)N([C@H]2c3ccccc3C[C@H]2O[Si](C)(C)C(C)(C)C)C[C@H]1O[Si](C)(C)C(C)(C)C)Cc1ccc(Br)cc1)C(C)(C)C | 760 nM | > 10000 nM | > 50000 nM | – | – | –
COC(=O)N[C@H](C(=O)NN(CC[C@@]1(Cc2ccccc2)C(=O)N([C@H]2c3ccccc3C[C@H]2O[Si](C)(C)C(C)(C)C)C[C@@H]1O[Si](C)(C)C(C)(C)C)Cc1ccc(Br)cc1)C(C)(C)C | 800 nM | > 10000 nM | – | – | – | –
COC(=O)N[C@H](C(=O)NN(CC[C@@]1(Cc2ccccc2)C(=O)N([C@H]2c3ccccc3C[C@H]2O)C[C@H]1O)Cc1ccc(Br)cc1)C(C)(C)C | 2.1 nM | 640 nM | > 50000 nM | > 300 µL/min/mg | – | –
COC(=O)N[C@H](C(=O)NN(CC[C@]1(Cc2ccccc2)C(=O)N([C@H]2c3ccccc3C[C@H]2O)C[C@H]1O)Cc1ccc(Br)cc1)C(C)(C)C | 1200 nM | > 10000 nM | 15000 nM | – | – | –
COC(=O)N[C@H](C(=O)NN(CC[C@]1(Cc2ccccc2)C(=O)N([C@H]2c3ccccc3C[C@H]2O)C[C@@H]1O)Cc1ccc(Br)cc1)C(C)(C)C | 940 nM | > 10000 nM | – | – | – | –
COC(=O)N[C@H](C(=O)NN(CC[C@@]1(Cc2ccccc2)C(=O)N([C@H]2c3ccccc3C[C@H]2O)C[C@@H]1O)Cc1ccc(Br)cc1)C(C)(C)C | 6.4 nM | 350 nM | – | – | 17 ×10⁻⁶ cm/s | –
COC(=O)N[C@H](C(=O)NN(CC[C@@]1(Cc2ccccc2)C(=O)N([C@H]2c3ccccc3C[C@H]2O)C[C@H]1O)Cc1ccc(-c2ccccn2)cc1)C(C)(C)C | 1.7 nM | 190 nM | 28000 nM | – | – | –
COC(=O)N[C@H](C(=O)NN(CC[C@@]1(Cc2ccccc2)C(=O)N([C@H]2c3ccccc3C[C@H]2O)C[C@@H]1O)Cc1ccc(-c2ccccn2)cc1)C(C)(C)C | 2 nM | 180 nM | > 50000 nM | – | – | –
COC(=O)N[C@H](C(=O)NN(CC[C@@]1(Cc2ccccc2)C(=O)N([C@H]2c3ccccc3C[C@H]2O)C[C@H]1O)Cc1ccc(-c2cccnc2)cc1)C(C)(C)C | 0.8 nM | 40 nM | > 50000 nM | 230 µL/min/mg | 3.8 ×10⁻⁶ cm/s | –
COC(=O)N[C@H](C(=O)NN(CC[C@@]1(Cc2ccccc2)C(=O)N([C@H]2c3ccccc3C[C@H]2O)C[C@@H]1O)Cc1ccc(-c2cccnc2)cc1)C(C)(C)C | 0.7 nM | 100 nM | – | 120 µL/min/mg | 5.1 ×10⁻⁶ cm/s | –
COC(=O)N[C@H](C(=O)NN(CC[C@@]1(Cc2ccccc2)C(=O)N([C@H]2c3ccccc3C[C@H]2O)C[C@H]1O)Cc1ccc(-c2ccncc2)cc1)C(C)(C)C | 0.4 nM | 40 nM | > 50000 nM | – | – | –
COC(=O)N[C@H](C(=O)NN(CC[C@@]1(Cc2ccccc2)C(=O)N([C@H]2c3ccccc3C[C@H]2O)C[C@@H]1O)Cc1ccc(-c2ccncc2)cc1)C(C)(C)C | 1.7 nM | 96 nM | – | – | – | –
COC(=O)N[C@H](C(=O)NN(CCC[C@@]1(Cc2ccccc2)C(=O)N([C@H]2c3ccccc3C[C@H]2O)C[C@H]1O)Cc1ccc(Br)cc1)C(C)(C)C | 13 nM | 3900 nM | 26000 nM | > 300 µL/min/mg | 22 ×10⁻⁶ cm/s | –
COC(=O)N[C@H](C(=O)NN(CCC[C@@]1(Cc2ccccc2)C(=O)N([C@H]2c3ccccc3C[C@H]2O)C[C@H]1O)Cc1ccc(-c2ccccc2)cc1)C(C)(C)C | 12 nM | 850 nM | 15000 nM | – | – | –
COC(=O)N[C@H](C(=O)NN(CCC[C@@]1(Cc2ccccc2)C(=O)N([C@H]2c3ccccc3C[C@H]2O)C[C@H]1O)Cc1ccc(-c2cccnc2)cc1)C(C)(C)C | 5.3 nM | 1800 nM | 23000 nM | 122 µL/min/mg | 4.4 ×10⁻⁶ cm/s | –
COC(=O)N[C@H](C(=O)NN(CCC[C@@]1(Cc2ccccc2)C(=O)N([C@H]2c3ccccc3C[C@H]2O)C[C@H]1O)Cc1ccc(-c2ccncc2)cc1)C(C)(C)C | – | 700 nM | 5900 nM | – | – | –
COC(=O)N[C@H](C(=O)NN(CCC[C@@]1(Cc2ccccc2)C(=O)N([C@H]2c3ccccc3C[C@H]2O)C[C@H]1O)Cc1ccc(-c2ccccn2)cc1)C(C)(C)C | 6.3 nM | 2500 nM | 31000 nM | 130 µL/min/mg | 3.4 ×10⁻⁶ cm/s | –
COC(=O)N[C@H](C(=O)NN(CCC1(Cc2ccccc2)C(=O)N([C@H]2c3ccccc3C[C@H]2O)CC1O)Cc1ccc(-c2ccncc2)cc1)C(C)(C)C (stereo not given in full) | 0.8 nM | – | – | – | – | –
COC(=O)N[C@H](C(=O)N[C@@H](Cc1ccccc1)[C@@H](O)CN(Cc1ccc(-c2ccccn2)cc1)NC(=O)[C@@H](NC(=O)OC)C(C)(C)C)C(C)(C)C [ATAZANAVIR] | – | 3.9 nM | – | – | – | 90 µL/min/mg
